Reference: patent publication US20240001012A1, “SOLUTIONS FOR […] OF A DRUG AD[…] […] AND DOSING ALGORITHM THEREFOR” (DREXEL UNIVERSITY, priority 2017, published 2024)

Assays:
[1] = Serum vancomycin plateau level in patients receiving continuous infusion vancomycin mixed in the CRRT solution; format: in vivo, human
Procedure: According to embodiments disclosed herein, drug concentrations in the solution(s) are adjusted in vitro based on an initial serum plateau level, and subsequent levels are thereafter obtained based on these changes. […] See step 70.
In this study, CRRT was performed using a Prismaflex System machine (Gambro, Lakewood, CO). The mode of dialysis, continuous venovenous hemofiltration or hemodiafiltration was dictated by an attending nephrologist prescribing the dialysis. The
(§1) Prismaflex machine was initially primed with two 1-L bags of normal saline and 5,000 units of heparin. The machine was then primed with normal saline, 5% albumin, or a blood exchange (blood is transfused to the patient as the prime is wasted) depending on the percent extracorporeal volume of the patient with a dialysis solution utilizing HF1000, AN69 dialysis filters. Commercially available dialysate and replacement solutions were used for all CRRT patients. The CRRT circuit and solutions were inspected and observed for adverse events, such as specifically for precipitation and clotting. The CRRT solution(s) and circuit were visually inspected after addition of the CRRT circuit prior to the final connection to the patient.
The median eGFR on ICU admission was 39.9 mL/min/1.73 m 2 (25th to 75th IQR, 25.8-53.4 mL/min/1.73 m 2) compared with a median eGFR of 26.7 mL/min/1.73 m 2 (25th to 75th IQR, 18.8-42.7 mL/min/1.73 m 2) with the initiation of CRRT.

[2] = Stability of vancomycin with components of the CRRT solution; format: physicochemical; conditions: in CRRT solution
Description: The CRRT or like solution may be prepared at the time it is needed following current standard operating procedures for sterile product compounding or as discussed below in greater detail. The amount of vancomycin, for instance, to be added to the solution is described below in greater detail. Accordingly, this mixed solution is provided for being infused for the duration it is prescribed for CRRT. […] Other drugs may be stable for less or more time.

[3] = Inspection of CRRT solution(s) and circuit for precipitation and clotting after mixing vancomycin; conditions: on mixing the vancomycin in the CRRT solution
Description: Upon initiation of CRRT, the CRRT circuit may be inspected and evaluated on an hourly basis according to current standards of care. A part of the hourly standard of care inspection may involve inspection of the CRRT solution for precipitation and crystallization. This assessment should continue for the period of time the patient is receiving CRRT and vancomycin or other antibiotics is mixed in the CRRT solution.
as §1

Streptococcus pneumoniae = experiment: Follow-up cultures in patient 4 on vancomycin via CRRT; format: in vivo, human; conditions: vancomycin continued 2 days
Description: (§2) Only two patients, patients 4 and 9, had cultures that were positive for a gram-positive organism. […] Subsequent cultures obtained from the blood and the respiratory system were negative. The isolate of Streptococcus pneumoniae was penicillin sensitive, and the patient was changed to ampicillin for the remainder of the treatment course.

[4] = tested on: methicillin-sensitive Staphylococcus aureus; experiment: Follow-up cultures in patient 9 on vancomycin via CRRT; format: in vivo, human; conditions: day 6 of vancomycin therapy, blood culture also negative
Description: as §2

[5] = escalation in CRRT intensity from hemofiltration to hemodiafiltration; Joy et al. 1998; cited from earlier work

CN[C@H](CC(C)C)C(=O)N[C@H]1C(=O)N[C@@H](CC(N)=O)C(=O)N[C@H]2C(=O)N[C@H]3C(=O)N[C@H](C(=O)N[C@H](C(=O)O)c4cc(O)cc(O)c4-c4cc3ccc4O)[C@H](O)c3ccc(c(Cl)c3)Oc3cc2cc(c3O[C@@H]2O[C@H](CO)[C@@H](O)[C@H](O)[C@H]2O[C@H]2C[C@](C)(N)[C@H](O)[C@H](C)O2)Oc2ccc(cc2Cl)[C@H]1O [Vancomycin, vancomycin]
median (25th to 75th IQR) vancomycin serum plateau concentration ([1]; 11 patients, median solution concentration 25 mg/L): 21.8 (20.9-25) | Vancomycin Level, IQR, 25 ([1]; all levels of 11 patients): 20.9 µg/mL | Vancomycin Level, IQR, 75 ([1]; all levels of 11 patients): 25 µg/mL | Vancomycin Level, Min ([1]; all levels of 11 patients): 12.9 µg/mL | Vancomycin Level, Mean ([1]; all levels of 11 patients, mean CRRT solution concentration 26.5 μg/mL): 22.3 µg/mL | Vancomycin Level, Median ([1]; all levels of 11 patients, median CRRT solution concentration 25 μg/mL): 21.8 µg/mL | attainment of therapeutic vancomycin serum plateau levels ([1]; all patients, regardless of CRRT modality, dose and flow rate): all patients achieved therapeutic vancomycin serum plateau levels | concentration at 8 h ([1]; human, serum, other: continuous infusion mixed in the CRRT solution, the one patient below 15 mg/L at 8 hours): 12900 ng/mL | therapeutic serum level after adjustment of the CRRT solution concentration ([1]; same patient, within 16 hours of starting CRRT): 23.5 mg/L | patients achieving a therapeutic serum vancomycin level within 8 hours ([1]; ten of eleven patients, within 8 hours of starting mixing vancomycin into the CRRT solution, target 15-30 mg/L): 91% | stable with components of the CRRT solution [2]: at least 96 hours | adverse events regarding precipitation of vancomycin with CRRT solution(s) or circuit [3]: no adverse events were observed | subsequent cultures from blood and respiratory system (Streptococcus pneumoniae): negative | repeat respiratory culture [4]: negative | increase in vancomycin clearance [5]: greater than or equal to 30%
